Laboratory results taken from patent US20230406840A1, “N-(2-(3-CYANO-2-AZABICYCLO[3.1.0]HEXAN-2-YL)-2-OXOETHYL)QUINOLINE-4-CARBOXAMIDES” (AstraZeneca AB, priority 2022, published 2023).
In brackets after ≈: the same amount, converted by molar mass.

Tests used:
[1] = system: Human Hepatocytes (hHep); experiment: Metabolic stability in human hepatocytes (hHep); format: in vitro ADME
Experimental: Metabolic stability in human hepatocytes was measured as described in Xenobiotica 2010, 40, 637.

[2] = target: human Fibroblast activation protein alpha (hFAP) (Homo sapiens (Human), UniProt Q12884); experiment: hFAP inhibition assay (tight binders); format: biochemical; details: tight-binder format, Ala-Pro-AMC 20 μM, 2.5 h incubation; n = 1 or geometric mean (n = 5-10)
human Fibroblast activation protein alpha (hFAP), sequence (Q12884 38-760): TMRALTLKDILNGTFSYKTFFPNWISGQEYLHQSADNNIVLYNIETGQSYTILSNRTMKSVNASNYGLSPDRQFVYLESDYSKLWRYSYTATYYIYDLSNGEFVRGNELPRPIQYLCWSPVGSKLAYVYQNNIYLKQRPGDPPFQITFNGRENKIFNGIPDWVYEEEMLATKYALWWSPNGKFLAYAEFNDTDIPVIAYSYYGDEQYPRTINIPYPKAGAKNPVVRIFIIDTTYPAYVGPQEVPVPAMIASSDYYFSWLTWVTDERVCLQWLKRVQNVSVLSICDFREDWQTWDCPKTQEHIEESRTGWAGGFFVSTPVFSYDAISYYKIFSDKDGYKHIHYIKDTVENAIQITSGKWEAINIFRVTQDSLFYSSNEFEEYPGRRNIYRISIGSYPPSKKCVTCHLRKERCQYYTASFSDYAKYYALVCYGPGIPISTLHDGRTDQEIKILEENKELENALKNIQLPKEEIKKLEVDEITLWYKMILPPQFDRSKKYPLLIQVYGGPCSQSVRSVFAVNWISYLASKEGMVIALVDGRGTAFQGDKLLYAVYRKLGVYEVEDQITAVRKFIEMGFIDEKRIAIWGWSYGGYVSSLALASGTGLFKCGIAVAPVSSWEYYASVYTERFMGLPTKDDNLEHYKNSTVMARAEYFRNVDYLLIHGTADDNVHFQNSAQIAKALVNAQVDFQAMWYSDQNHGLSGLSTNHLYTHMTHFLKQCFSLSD
Experimental: Data were analyzed in Genedata Screener®.

[3] = Caco-2 bidirectional (ABBA) permeability; format: in vitro ADME; details: human; for Papp A→B: A to B, read-out: Caco2 Bidirectional (ABBA) A to B Papp; for Papp B→A: B to A, read-out: Caco2 Bidirectional (ABBA) B to A Papp; for efflux ratio: read-out: Caco2 Bidirectional (ABBA) Efflux Ratio
Experimental: (§1) Caco-2 cell permeability was measured as described in Mol/Pharm 2017, 14, 1601.

[4] = Kinetic solubility; format: physicochemical; details: kinetic from dmso stock
Experimental: Kinetic solubility was measured as described in Comput Aided Mol Des 2015, 29, 795.

[5] = Caco-2 AB intrinsic permeability; format: in vitro ADME; details: human, A to B, read-out: Caco2 AB Intrinsic Papp
Experimental: as §1

[6] = target: FAP Mouse Plasma (Mus musculus (Mouse), UniProt P97321); experiment: FAP plasma inhibition assay, mouse plasma; format: biochemical; details: mouse plasma dilution 1:67, Ala-Pro-AMC 75 μM; n = 1
FAP Mouse Plasma, sequence (P97321 24-761 limits assumed): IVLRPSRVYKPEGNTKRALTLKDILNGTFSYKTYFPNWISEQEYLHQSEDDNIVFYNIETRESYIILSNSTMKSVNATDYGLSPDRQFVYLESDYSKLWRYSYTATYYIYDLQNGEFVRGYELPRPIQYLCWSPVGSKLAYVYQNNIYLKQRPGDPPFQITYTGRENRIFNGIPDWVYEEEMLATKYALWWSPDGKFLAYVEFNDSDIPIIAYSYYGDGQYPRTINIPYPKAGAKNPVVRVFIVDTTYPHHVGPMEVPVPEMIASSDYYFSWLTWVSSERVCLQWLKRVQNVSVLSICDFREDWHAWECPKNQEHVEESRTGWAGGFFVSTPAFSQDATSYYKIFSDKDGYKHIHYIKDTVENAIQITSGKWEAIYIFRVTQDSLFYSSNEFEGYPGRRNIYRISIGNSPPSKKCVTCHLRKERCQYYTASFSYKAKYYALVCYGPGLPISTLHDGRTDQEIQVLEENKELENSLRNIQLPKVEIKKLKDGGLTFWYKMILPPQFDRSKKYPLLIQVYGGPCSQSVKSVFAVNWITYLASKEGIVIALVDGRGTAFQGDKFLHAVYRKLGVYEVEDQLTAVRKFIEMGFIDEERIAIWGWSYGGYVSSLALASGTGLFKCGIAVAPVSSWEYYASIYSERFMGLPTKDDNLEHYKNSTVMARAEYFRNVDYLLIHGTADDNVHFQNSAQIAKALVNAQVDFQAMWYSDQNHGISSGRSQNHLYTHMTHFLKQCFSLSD
Experimental: (§2) This assay was adapted from the method described in Example 53 for detection of FAP target engagement enzyme activity in plasma. Plasma (anticoagulant K2EDTA) was used as the enzyme source: Human plasma (Pooled from AZ Biobank) and Mouse plasma (AZ AST Biobank). 384-Well black fluotrack PS plates (Greiner 781076) were used. 20 μL diluted plasma (Human plasma dilution 1:40, Mouse plasma dilution 1:67) in buffer (PBS, 0.1% BSA) was added to 0.6 μL compounds (in DMSO). Compounds were tested using 10 CR, 3-fold dilution series from 500 nM FAC. Two replicates for each assay point were run on the same plate. A fluorescence blank read was taken before substrate addition. Substrate, Ala-Pro-AMC (ARI-3144) stock solution (20 mM in DMSO) was diluted in buffer (PBS, 0.1% BSA) to 150 μM concentration and 20 μL added giving 75 μM FAC. Plates were incubated for 40 min at rt in the dark. The plates were read on a Beckman Paradigm® reader with excitation 360 nm and emission 465 nm. Data were analyzed in Excel (IDBS XLfit Add-In) using a one site dose response model (4-parameter logistic fit). […] Raw data signals were normalized using 1.5% DMSO in diluted plasma as 0% control and 1.5% DMSO in buffer (no plasma) as 100% inhibitor control.

[7] = system: Rat Hepatocytes (rHep); experiment: Metabolic stability in rat hepatocytes (rHep); format: in vitro ADME
Experimental: Metabolic stability in rat hepatocytes was measured as described in J Comput Aided Mol Des 2015, 29, 795.

[8] = Metabolic stability in human liver microsomes (HLM); format: in vitro ADME
Experimental: Metabolic stability in HLM was measured as described in J Comput Aided Mol Des 2015, 29, 795.

[9] = target: Prolyl Oligopeptidase (hPREP) (Homo sapiens (Human), UniProt P48147); experiment: hPREP inhibition assay; format: biochemical; details: hPREP 0.6 nM, Z-Gly-Pro-amino-methylcoumarin 50 μM; read-out: PREP IC50
Prolyl Oligopeptidase (hPREP), sequence (P48147 whole entry): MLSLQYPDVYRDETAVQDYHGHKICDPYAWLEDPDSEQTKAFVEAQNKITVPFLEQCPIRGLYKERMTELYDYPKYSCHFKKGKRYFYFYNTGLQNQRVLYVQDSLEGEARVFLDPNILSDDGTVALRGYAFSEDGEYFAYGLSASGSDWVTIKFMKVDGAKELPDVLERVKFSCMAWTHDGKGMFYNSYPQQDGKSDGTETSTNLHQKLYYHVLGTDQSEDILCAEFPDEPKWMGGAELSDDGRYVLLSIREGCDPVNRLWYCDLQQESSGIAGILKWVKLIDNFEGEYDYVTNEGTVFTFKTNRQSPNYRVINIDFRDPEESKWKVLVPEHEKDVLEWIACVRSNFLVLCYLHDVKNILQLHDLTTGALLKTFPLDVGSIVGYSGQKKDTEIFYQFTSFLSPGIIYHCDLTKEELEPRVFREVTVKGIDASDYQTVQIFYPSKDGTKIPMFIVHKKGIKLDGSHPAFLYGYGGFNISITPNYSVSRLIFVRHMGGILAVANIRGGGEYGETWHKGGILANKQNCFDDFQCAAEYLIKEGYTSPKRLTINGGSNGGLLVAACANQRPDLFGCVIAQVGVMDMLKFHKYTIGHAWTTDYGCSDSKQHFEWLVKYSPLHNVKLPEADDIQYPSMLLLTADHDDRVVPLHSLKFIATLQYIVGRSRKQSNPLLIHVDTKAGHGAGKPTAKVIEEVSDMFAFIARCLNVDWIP
How it was run: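 Recombinant human PREP at 0.6 nM final, with Z-Gly-Pro-AMC substrate at 50 μM final. Buffer: 25 mM Tris HCl pH 7.5, 250 mM NaCl, 0.01% Triton X-100, 5 mM glutathione. Incubated 20 min at rt in the dark; fluorogenic AMC release read.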

[10] = target: FAP Human Plasma (Homo sapiens (Human), UniProt Q12884); experiment: FAP plasma inhibition assay, human plasma; format: biochemical; details: human plasma dilution 1:40, Ala-Pro-AMC 75 μM; n = 1
FAP Human Plasma, sequence (Q12884 24-760 limits assumed): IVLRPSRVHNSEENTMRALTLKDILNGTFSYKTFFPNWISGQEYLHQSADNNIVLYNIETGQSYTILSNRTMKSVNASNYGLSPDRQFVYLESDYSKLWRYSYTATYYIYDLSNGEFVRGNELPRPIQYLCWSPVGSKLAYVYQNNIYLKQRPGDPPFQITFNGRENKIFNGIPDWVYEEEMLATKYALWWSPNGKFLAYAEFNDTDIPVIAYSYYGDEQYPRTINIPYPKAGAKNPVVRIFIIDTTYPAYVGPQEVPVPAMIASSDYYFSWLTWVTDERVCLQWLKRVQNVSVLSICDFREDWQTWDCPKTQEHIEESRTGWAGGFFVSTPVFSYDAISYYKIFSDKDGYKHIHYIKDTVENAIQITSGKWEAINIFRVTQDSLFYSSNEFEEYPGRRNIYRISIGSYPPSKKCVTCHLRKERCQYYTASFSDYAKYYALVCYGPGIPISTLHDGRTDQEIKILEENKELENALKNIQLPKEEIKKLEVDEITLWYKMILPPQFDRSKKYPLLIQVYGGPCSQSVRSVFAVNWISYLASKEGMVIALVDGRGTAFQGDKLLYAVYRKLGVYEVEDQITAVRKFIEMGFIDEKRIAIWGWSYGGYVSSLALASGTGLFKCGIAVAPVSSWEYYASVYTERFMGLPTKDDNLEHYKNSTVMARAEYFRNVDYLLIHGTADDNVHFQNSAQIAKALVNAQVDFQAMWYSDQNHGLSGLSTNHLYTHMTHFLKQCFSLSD
Experimental: as §2

[11] = target: hFAP (Homo sapiens (Human), UniProt Q12884);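 further: fluorescence read after incubating enzyme with substrate at room temperature, IC50 fitted from percent inhibition against log concentration with a one-site model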
hFAP, sequence (Q12884 38-760): as the sequence (Q12884 38-760) above

hHep CLint [1] [μL/min/1E6] | IC50 [2] [nM] | Papp A→B [3] [×10⁻⁶ cm/s] | Papp B→A [3] [×10⁻⁶ cm/s] | efflux ratio [3] | solubility [4] [µM] | Papp [5] [×10⁻⁶ cm/s] | IC50 [6] [nM] | rHeps CLint [7] [μL/min/1E6] | microsomal CLint [8] [µL/min/mg] | IC50 [9] [nM] | IC50 [10] [nM] | IC50 [11] [nM] | Compound
<1 | 0.48 | 24 | 19 | 0.8 | > 1000 | 60 | 0.73 | <2 | < 3.2 | 31000 | 1.6 | < 1.6 | Cc1ccc2c(C(=O)NCC(=O)N3[C@H](C#N)C[C@@H]4C[C@@H]43)ccnc2c1 [Example 20, N-(2-((1S,3S,5S)-3-Cyano-2-azabicyclo[3.1.0]hexan-2-yl)-2-oxoethyl)-7-methylquinoline-4-carboxamide]
<1 | 0.15 | 2.8 | 28 | 10 | 570 (≈ 220 µg/mL) | 9.3 | 2.8 | 2.6 | < 3 | > 50000 | 4.1 | 0.49 | N#C[C@@H]1C[C@@H]2C[C@@H]2N1C(=O)CNC(=O)c1ccnc2cc(C3(C#N)CC3)ccc12 [Example 40, N-(2-((1S,3S,5S)-3-Cyano-2-azabicyclo[3.1.0]hexan-2-yl)-2-oxoethyl)-7-(1-cyanocyclopropyl)quinoline-4-carboxamide]
